One experiment has as its target T1, MMP-9 (Homo sapiens, UniProt P14780).
T1 construct: made in house; host or cells: MMP-9-transfected HT1080 cells (spent media)
In words: In vitro MMP inhibition, Ki determination (fluorogenic substrate II). It is filed as biochemical. The settings on record: value not in parenthesis. In outline:
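HT1080-derived MMP-9, activated with APMA, trypsin or MMP-3, incubated 1 hr at room temperature with inhibitor and 4 μM fluorogenic substrate II (at or below Km) in pH 7.5 Tris/NaCl/CaCl2 buffer; ex 330/em 420 nm. Ki from Morrison-equation regression, without substrate correction.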

A further experiment addresses T2, MMP-1 (Homo sapiens, UniProt P03956).
T2 construct: made in house; host or cells: MMP-1-transfected HT-1080 cells (spent media)
T2 sequence (P03956 100-469): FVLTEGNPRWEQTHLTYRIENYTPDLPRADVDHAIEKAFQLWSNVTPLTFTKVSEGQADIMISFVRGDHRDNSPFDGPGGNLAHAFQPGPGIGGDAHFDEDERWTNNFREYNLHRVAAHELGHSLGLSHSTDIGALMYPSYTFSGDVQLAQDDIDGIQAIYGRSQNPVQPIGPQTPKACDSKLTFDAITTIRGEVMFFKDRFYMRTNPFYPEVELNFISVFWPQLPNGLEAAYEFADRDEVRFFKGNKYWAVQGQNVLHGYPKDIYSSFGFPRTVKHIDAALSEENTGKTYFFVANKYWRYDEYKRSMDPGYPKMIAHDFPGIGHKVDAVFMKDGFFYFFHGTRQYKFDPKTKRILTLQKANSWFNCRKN
The experiment is described as above. It is filed as biochemical. The settings on record: value not in parenthesis; read-out: MMP-1 Ki.

The text below walks through data of patent US20050209278A1, “Piperidinyl- and piperazinyl-sulfonylmethyl hydroxamic acids and their use as protease inhibitors” (priority 2002, published 2005).

What is called Ki is the dissociation constant of the complex between target and ligand, obtained from inhibition or displacement.

T1 sequence (P14780 107-707 limits assumed): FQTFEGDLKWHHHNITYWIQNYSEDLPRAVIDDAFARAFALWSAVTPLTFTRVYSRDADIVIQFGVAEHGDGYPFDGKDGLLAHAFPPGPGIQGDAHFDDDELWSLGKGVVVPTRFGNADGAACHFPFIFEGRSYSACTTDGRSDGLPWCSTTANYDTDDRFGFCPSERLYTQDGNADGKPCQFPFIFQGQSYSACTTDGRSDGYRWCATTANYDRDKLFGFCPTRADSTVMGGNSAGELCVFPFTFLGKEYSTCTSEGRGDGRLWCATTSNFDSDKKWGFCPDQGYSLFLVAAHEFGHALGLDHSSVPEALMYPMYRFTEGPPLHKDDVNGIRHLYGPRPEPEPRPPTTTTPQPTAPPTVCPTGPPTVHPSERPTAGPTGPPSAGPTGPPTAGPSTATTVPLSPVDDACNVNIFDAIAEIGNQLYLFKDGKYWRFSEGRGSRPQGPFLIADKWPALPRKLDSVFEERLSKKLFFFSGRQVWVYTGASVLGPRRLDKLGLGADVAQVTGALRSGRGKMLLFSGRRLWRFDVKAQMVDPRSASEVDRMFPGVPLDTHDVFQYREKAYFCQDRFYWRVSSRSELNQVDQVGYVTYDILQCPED

`COCCN1CCC(C(=O)NO)(S(=O)(=O)N2CCN(c3ccc(OCC(F)(F)C(F)(F)F)cc3)CC2)CC1` [Example 144]: the inhibitory constant (Ki) is 2.31 nM at MMP-9 and greater than 10000 nM at MMP-1.
Turning to `CCCCOc1ccc(N2CCN(S(=O)(=O)C3(C(=O)NO)CCOCC3)CC2)cc1` [Example 145], the figures for the Ki at MMP-9 and on MMP-1 were 1.18 nM and greater than 10000 nM, respectively.
As for `CCCCc1ccc(N2CCN(S(=O)(=O)C3(C(=O)NO)CCN(c4ccc(C)cc4)CC3)CC2)cc1` [Example 146], the values for the inhibition constant (Ki) on MMP-9 and on MMP-1 were 2.29 nM and greater than 10000 nM, respectively.
For `CCCCCc1ccc(N2CCN(S(=O)(=O)C3(C(=O)NO)CCN(c4ccc(C)cc4)CC3)CC2)cc1` [Example 147] the same measures were 13.7 nM and greater than 10000 nM.
For `COCCN1CCC(C(=O)NO)(S(=O)(=O)N2CCN(c3ccc(OCCC(C)C)cc3)CC2)CC1` [Example 148], the Ki at MMP-9 is 2.35 nM; on MMP-1, greater than 10000 nM.
For the compound `CCCCOc1ccc(N2CCN(S(=O)(=O)C3(C(=O)NO)CCN(c4ccccn4)CC3)CC2)cc1` [Example 149], the inhibitory constant (Ki) is 5.87 nM at MMP-9 and greater than 10000 nM on MMP-1.
Consider `CCCCOc1ccc(N2CCN(S(=O)(=O)C3(C(=O)NO)CCN(c4nc5ccccc5o4)CC3)CC2)cc1` [Example 150], for which the Ki at MMP-9 is 31.4 nM; on MMP-1, greater than 10000 nM.
For `O=C(NO)C1(S(=O)(=O)N2CCN(c3ccc(SC(F)(F)F)cc3)CC2)CCN(Cc2ccccc2)CC1` [Example 152], the results for the Ki at MMP-9 and at MMP-1 were 90 nM and greater than 10000 nM, respectively.
On to `O=C(NO)C1(S(=O)(=O)N2CCN(c3ccc(OCCCC(F)(F)F)cc3)CC2)CCN(C2CC2)CC1` [Example 153], for which the inhibitory constant (Ki) on MMP-9 is 6.1 nM; on MMP-1 it was greater than 10000 nM.
Consider `CCCCOc1ccc(N2CCN(S(=O)(=O)C3(C(=O)NO)CCN(c4cccnc4)CC3)CC2)cc1` [Example 154], for which the Ki on MMP-9 is 2.15 nM; on MMP-1, greater than 10000 nM.
Take `CCCCOc1ccc(N2CCN(S(=O)(=O)C3(C(=O)NO)CCN(c4ncc(CC)cn4)CC3)CC2)cc1` [Example 155]: the inhibition constant Ki was 9.86 nM on MMP-9 and greater than 10000 nM on MMP-1.
